Reference: patent US20260250318A1, “COMPOSITIONS AND METHODS FOR CROSSING THE BLOOD BRAIN BARRIER” (VOYAGER THERAPEUTICS, INC., priority 2022, published 2026)

Experiments:
brain [1] = test: Matured TTM-001 and TTM-002 variants, NGS enrichment in mouse brain; type: in vivo, mice; settings: relative to AAV9 control
[2] = test system: brains, heart, liver, muscle, and DRG of the NHPs; test: Maturation of TTM-001 and TTM-002 capsids, NGS enrichment in NHP tissues; type: in vivo; settings: relative to AAV9 control
Procedure, shortened: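 Variants carry mutations within and flanking the loop IV peptide insert: positions 450–466 were triplet-randomized, while positions 449–466 received low-frequency point mutations. The combined pool went into two NHPs, and each peptide was scored by NGS enrichment ratio against AAV9.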

brain [3] = test: NGS fold enrichment of synthetic library (passage 3) in C57Bl/6 mice, first cross-species screen; type: in vivo; settings: synthetic library passage 3, intravenous, relative to wild-type AAV9
Procedure, shortened: (§1)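 Synthetic capsid library (passage 3) was given intravenously […] to NHPs aged 2-4 years and to BALB/c and C57Bl/6 mice (n=3 each, 6-8 weeks). After about 28 days in vivo, tissue RNA was RT-PCR amplified and NGS-sequenced; values are fold enrichment per variant relative to wild-type AAV9.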

brain [4] = test: NGS fold enrichment of synthetic library (passage 3) in BALB/c mice, first cross-species screen; type: in vivo; settings: synthetic library passage 3, intravenous, relative to wild-type AAV9
Procedure, shortened: as §1

[5] = test system: brain, spinal cord, and DRG of the NHPs; test: NGS fold enrichment of synthetic library (passage 3) in NHPs, first cross-species screen; type: in vivo, cynomolgus macaques (Macaca fascicularis); settings: synthetic library passage 3, intravenous, relative to wild-type AAV9
Procedure, shortened: as §1

[6] = NGS fold-enrichment, brain of mice
[7] = NGS fold-enrichment, DRG of NHPs
[8] = NGS fold-enrichment, RNA, brain of NHPs
[9] = NGS fold-enrichment, heart of NHPs
[10] = NGS fold-enrichment, liver DNA of NHPs
[11] = NGS fold-enrichment, liver RNA of NHPs
[12] = NGS fold-enrichment, muscle of NHPs

| Sequence | Fold enrichment over AAV9 in the brain of Mice (C57Bl/6) (brain [3]; RNA NGS, brain of C57Bl/6 mice) [fold] | Fold enrichment over AAV9 in the brain of Mice (BALB/c) (brain [4]; RNA NGS, brain of BALB/c mice) [fold] | Fold enrichment over AAV9 in the brain of NHPs ([5]; RNA NGS, brain of NHPs) [fold] | Fold enrichment over AAV9 in the spinal cord of NHPs ([5]; RNA NGS, spinal cord of NHPs) [fold] | also measured |
| --- | --- | --- | --- | --- | --- |
| EAINGSGSPHSKAQNQQT | – | – | – | – | Fold Enrichment relative to AAV9, Brain (Mouse) (brain [1]; mouse brain): 117.305 fold; Fold Enrichment relative to AAV9, Brain (NHP) ([2]; NGS fold-enrichment of matured AAV capsid variants, NHP brain, RNA): 50.243 fold; Fold Enrichment relative to AAV9, DRG (NHP) ([2]; NHP DRG): 0.629 fold; Fold Enrichment relative to AAV9, Heart (NHP) ([2]; NHP heart): 0.094 fold; Fold Enrichment relative to AAV9, Liver DNA (NHP) ([2]; NHP liver, DNA): 1.519 fold; Fold Enrichment relative to AAV9, Liver RNA (NHP) ([2]; NHP liver, RNA): 0.057 fold; Fold Enrichment relative to AAV9, Muscle (NHP) ([2]; NHP muscle): 0.000 fold |
| ETIKGSGSPHSKAQNQQT | – | – | – | – | Fold Enrichment relative to AAV9, Brain (Mouse) (brain [1]; [6]): 67.201 fold; Fold Enrichment relative to AAV9, DRG (NHP) [2, 7]: 0.000 fold; Fold Enrichment relative to AAV9, Brain (NHP) [2, 8]: 64.609 fold; Fold Enrichment relative to AAV9, Heart (NHP) [2, 9]: 0.000 fold; Fold Enrichment relative to AAV9, Liver DNA (NHP) [2, 10]: 0.024 fold; Fold Enrichment relative to AAV9, Liver RNA (NHP) [2, 11]: 0.000 fold; Fold Enrichment relative to AAV9, Muscle (NHP) [2, 12]: 0.144 fold |
| ETINGSGSPHSKAQNLQT | – | – | – | – | Fold Enrichment relative to AAV9, Brain (Mouse) (brain [1]; [6]): 107.216 fold; Fold Enrichment relative to AAV9, Brain (Mouse) (brain [1]; NGS fold-enrichment, mouse brain): 107.216 fold; Fold Enrichment relative to AAV9, Brain (NHP) ([2]; NGS fold-enrichment of RNA, NHP brain): 90.969 fold; Fold Enrichment relative to AAV9, DRG (NHP) [2, 7]: 0.221 fold; Fold Enrichment relative to AAV9, DRG (NHP) ([2]; NGS fold-enrichment, NHP DRG): 0.221 fold; Fold Enrichment relative to AAV9, Heart (NHP) ([2]; NGS fold-enrichment, NHP heart): 1.023 fold; Fold Enrichment relative to AAV9, Liver DNA (NHP) ([2]; NGS fold-enrichment, NHP liver DNA): 0.813 fold; Fold Enrichment relative to AAV9, Liver RNA (NHP) ([2]; NGS fold-enrichment, NHP liver RNA): 0.179 fold; Fold Enrichment relative to AAV9, Muscle (NHP) ([2]; NGS fold-enrichment, NHP muscle): 0.197 fold; Fold Enrichment relative to AAV9, Brain (NHP) [2, 8]: 90.969 fold; Fold Enrichment relative to AAV9, Heart (NHP) [2, 9]: 1.023 fold; Fold Enrichment relative to AAV9, Liver DNA (NHP) [2, 10]: 0.813 fold; Fold Enrichment relative to AAV9, Liver RNA (NHP) [2, 11]: 0.179 fold; Fold Enrichment relative to AAV9, Muscle (NHP) [2, 12]: 0.197 fold |
| GVAFIGSSGQNQQT | 0.744 | 0.648 | 1.043 | 0.000 | – |
| GVAGSLVSGQNQQT | 1.321 | 1.160 | 2.358 | 7.670 | – |
| GVGVITSSGQNQQT | – | – | – | – | Fold enrichment over AAV9 in the brain of Mice (C57Bl/6) (brain [3]; RNA from brain of C57Bl/6 mice, NGS): 1.296 fold; Fold enrichment over AAV9 in the brain of Mice (BALB/c) (brain [4]; RNA from brain of BALB/c mice, NGS): 0.777 fold; Fold enrichment over AAV9 in the brain of NHPs ([5]; RNA from brain of NHPs, NGS): 1.348 fold; Fold enrichment over AAV9 in the spinal cord of NHPs ([5]; RNA from spinal cord of NHPs, NGS): 0.918 fold |
| GVHDMRVSGQNQQT | 1.171 | 0.818 | 1.032 | 8.083 | – |
| GVHSLTPSGQNQQT | 0.475 | 0.215 | 1.687 | 4.104 | – |
| GVHTHLPSGQNQQT | 1.414 | 0.796 | 1.952 | 1.364 | – |
| GVIVLHGSGQNQQT | 1.074 | 1.098 | 1.682 | 14.166 | – |
| GVKGVGHSGQNQQT | 0.994 | 0.783 | 1.096 | 2.485 | – |
| GVSRGGPSGQNQQT | 0.750 | 0.591 | 1.028 | 1.611 | – |
